Results: patent publication US20220135622A1, “ANTIBACTERIAL PEPTIDES AND METHODS OF USE” (priority 2019, published 2022)
Converted amounts (≈) assume the structure as drawn. Where two headings read alike, the source gives them in different places. Square brackets hold non-standard residues; d marks the D form. Peptide text beside a SMILES is read from it. Bip = N[C@@H](Cc1ccc(-c2ccccc2)cc1)C(=O)O; NMeM = CN[C@@H](CCSC)C(=O)O; NMeA = CN[C@@H](C)C(=O)O

What was measured:
[1] = test system: E. coli imp4213; assay: MIC assay, E. coli imp4213; format: cell-based, Escherichia coli; settings: Table 7
Experimental: (§1) Bacterial growth conditions. LB or Mueller Hinton II cation-adjusted broth (MHB II, BBL 212322) was prepared according to manufacturer's instructions and supplemented with arabinose at 0.02% for overnight growth or at indicated concentrations in the description of the figures. Bacterial cultures were grown at 37° C. When appropriate, media was supplemented with kanamycin (50 μg/mL), carbenicillin (50 μg/mL), chloramphenicol (12.5 or 25 μg/mL), hygromycin (200 μg/mL), and/or gentamicin (10 μg/mL).
(§2) Peptide sensitivity and MIC assays. Lyophilized peptides (Smartox Biotechnology, CPC Scientific. ABclonal) were solubilized to 10 mM in Tris buffer, pH 8, prior to making a 2-fold dilution series in MHBII cation adjusted broth with highest final assay concentration of 400-800 μM. Bacteria were grown to log phase and added to final OD600˜0.001. The final EDTA concentration was 0.5 mM for E. coli strains and 0.125 mM for USA300. The final volume of 10 μL/well in a 384 well black, clear bottom plate (Corning) was spun <1 min at <250×g and then incubated at 37° C. After 4 h, an equal volume (10 μL) of BacTiter-Glo™ (Promega) was added to each well and luminescence was read after 5 min on an EnVision plate reader (PerkinElmer). To measure the minimal inhibitory concentrations (MICs), bacteria from fresh overnight plates or log phase cultures were diluted with or without EDTA and peptides as described above to final OD600˜0.0002. Plates were incubated at 37° C. for 20 h before measuring OD600 with an EnVision plate reader.

[2] = test system: A. baumannii; format: cell-based, Acinetobacter baumannii; settings: Table 8
Summary of the method: (§3)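 Growth inhibition: log-phase cells (OD600 ~0.001), peptides in 2-fold series up to 400–800 μM in MHB II, EDTA 0.5 mM (E. coli) or 0.125 mM (USA300), 4 h at 37 °C, ATP luminescence readout. MICs: inoculum at OD600 ~0.0002, with or without EDTA, 20 h at 37 °C, OD600 endpoint.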

[3] = test system: E. coli ΔwaaD MCR-1; assay: MIC assay, E. coli ΔwaaD MCR-1; format: cell-based, Escherichia coli; settings: Table 7
Experimental: as §1, §2

[4] = test system: K. pneumoniae; format: cell-based, Klebsiella pneumoniae; settings: Table 8
Summary of the method: as §3

[5] = test system: E. coli BW25113; format: cell-based, Escherichia coli
Summary of the method: as §3

[6] = test system: E. coli ΔwaaD + vect.; assay: MIC assay, E. coli ΔwaaD + vect.; format: cell-based, Escherichia coli; settings: Table 7
Experimental: as §1, §2

[7] = test system: S. aureus USA300; assay: MIC assay, S. aureus USA300; format: cell-based, Staphylococcus aureus; settings: Table 7
Experimental: as §1, §2

[8] = test system: P. aeruginosa; format: cell-based, Pseudomonas aeruginosa; settings: Table 8
Summary of the method: as §3

[9] = test system: E. coli ΔwaaD; assay: MIC assay, E. coli ΔwaaD; format: cell-based, Escherichia coli; settings: Table 7; + EDTA
Experimental: as §1, §2

| Molecule | MIC E. coli imp4213 [1] | MIC A. baumannii [2] [µM] | MIC E coli ΔwaaD − MCR1 [3] | MIC K. pneumoniae [4] [µM] | MIC E. coli BW25113 ([5]; Table 8) [µM] | MIC E. coli ΔwaaD + vect. [6] | MIC S. aureus USA300 [7] [µM] | MIC R. aeruginosa [8] [µM] | MIC E coli BW25113 + EDTA ([5]; Table 7) [µM] | MIC E. coli BW25113 ([5]; Table 7, no EDTA) [µM] | MIC E. coli ΔwaaD + EDTA [9] [µM] |
| --- | --- | --- | --- | --- | --- | --- | --- | --- | --- | --- | --- |
| CSCC[C@H](NC(=O)[C@@H]1CCCN1C(=O)[C@H](Cc1ccc(O)cc1)NC(C)=O)C(=O)N[C@H](C(=O)N[C@@H](C)C(=O)N[C@@H](CCCNC(=N)N)C(=O)N[C@@H](CCCNC(=N)N)C(=O)N[C@@H](Cc1ccc(-c2ccccc2)cc1)C(=O)N[C@@H](CC(C)C)C(=O)N[C@@H](CCC(=O)O)C(=O)N[C@@H](CCCCN)C(=O)N[C@@H](Cc1c[nH]c2ccccc12)C(=O)NCC(=O)N[C@@H](CC(C)C)C(=O)N[C@@H](CC(C)C)C(=O)N[C@@H](CCCNC(=N)N)C(N)=O)[C@@H](C)O [compound 55] (Ac-YPMTARR[Bip]LEKWGLLR-NH2) | 6.25 µM (≈ 13.5 µg/mL) | 25 (≈ 53.9 µg/mL) | 50 µM (≈ 108 µg/mL) | 400 (≈ 862 µg/mL) | 100 (≈ 215 µg/mL) | 25 µM | >400 | >800 |  |  |  |
| CSCC[C@@H](C(=O)N[C@H](C(=O)N(C)[C@@H](C)C(=O)N[C@@H](CCCNC(=N)N)C(=O)N[C@@H](CCCNC(=N)N)C(=O)N[C@@H](Cc1ccccc1)C(=O)N[C@@H](CC(C)C)C(=O)N[C@@H](CCC(=O)O)C(=O)N[C@@H](CCCCN)C(=O)N[C@@H](Cc1c[nH]c2ccccc12)C(=O)NCC(=O)N[C@@H](CC(C)C)C(=O)N[C@@H](CC(C)C)C(=O)N[C@@H](CCCNC(=N)N)C(N)=O)[C@@H](C)O)N(C)C(=O)[C@@H]1CCCN1C(=O)[C@H](Cc1ccc(O)cc1)NC(C)=O [compound 65] (Ac-YP[NMeM]T[NMeA]RRFLEKWGLLR-NH2) | 12.5 µM (≈ 26.3 µg/mL) | 50 (≈ 105 µg/mL) | 100 µM (≈ 211 µg/mL) | 200 (≈ 421 µg/mL) | 200 (≈ 421 µg/mL) | <6.25 µM | 800 (≈ 1690 µg/mL) | 800 (≈ 1690 µg/mL) |  |  |  |
| Ac-GSSYPMTARRFLEKHGL-NH2 [compound 8] | 200 µM |  |  |  |  |  | >800 |  | 800 | >800 | 800 |
| Ac-GSSYPMTARRFLEKHGLL-NH2 [compound 7] | 200/400 |  |  |  |  |  | >800 |  | 400 | >800 | 400 |
| Ac-GSSYPMTARRFLEKHGLLR-NH2 [compound 13] | 200 µM |  | 200 µM |  |  | 800 µM | >800 |  | 800 | >800 | 200 |
| Ac-GSSYPMTARRFLEKWGLLD-NH2 [compound 6] | 400 µM |  |  |  |  |  | >800 |  | 800 | >800 | >800 |
| Ac-GSSYPMTARRFLEKWGLLR-NH2 (N-terminus and C-terminus assumed) [compound 5] |  |  |  |  |  |  |  |  | 400 |  | 100 |
| Ac-SSYPMTARRFLEKHGLLD-NH2 [compound 9] | 800 µM |  |  |  |  |  | >800 |  | >800 | >800 | >800 |
| Ac-YPMNARRFLEKWGLLR-NH2 [compound 50] | 25 µM | 400 | 800/400 | 800 | 400 | 200 µM | >400 | 800 |  |  |  |
| Ac-YPMSARRFLEKWGLLR-NH2 [compound 49] | 25 µM | 200 | 400 µM | 800 | 400 | 100 µM | >400 | 400 |  |  |  |
| Ac-YPMTAQRFLEKWGLLR-NH2 [compound 54] | 100 µM | >800 | >800 µM | >800 |  | 100 µM | >400 | >800 |  | >400 |  |
| Ac-YPMTARRFLAKWGLLR-NH2 [compound 57] | 12.5 µM | 100 | 100/700 | 400 | 200 | 100 µM | >400 | 200 |  |  |  |
| Ac-YPMTARRFLEKHGL-NH2 [compound 12] |  |  |  |  |  |  |  |  | 800 |  | 400 |
| Ac-YPMTARRFLEKHGLL-NH2 [compound 11] | 200 µM |  |  |  |  |  | >800 |  | 400 | >800 | 400 |
| Ac-YPMTARRFLEKHGLLD-NH2 [compound 10] | 800 µM |  |  |  |  |  | >800 |  | 800 | >800 | >800 |
| Ac-YPMTARRFLEKWGL-NH2 [compound 44] | 100 µM | >800 | >800 µM | >800 |  | 200 µM | >800 | 800 |  | >400 |  |
| Ac-YPMTARRYLEKWGLLR-NH2 [compound 56] | 25 µM | 400 | 800 µM | 800 |  | 400 µM | >400 | 800 |  | >400 |  |
| Ac-YPMTFRRFLEKWGLLR-NH2 [compound 59] | 12.5 µM | 50 | 50 µM | 800 | 400 | 25 µM | >400 | >800 |  |  |  |
| Ac-YPMTMRRFLEKWGLLR-NH2 [compound 58] | 12.5 µM | 25 | 50 µM | 400 | 400 | 50/25 | >400 | >800 |  |  |  |
